From patent US8138169B2, “Combination therapy for bipolar disorder” (ComgenRx, Inc., priority 2008, dated 2012)

Test system: patients with bipolar disorder
Assay: Side effects reported in patient case reports
Assay type: in vivo, human

Compound: CN(C)CCOC(c1ccccc1)c1ccccc1 [Benadryl]
- akisthisia (Example 42: Benadryl 1x/day for akisthisia under Geodon): significant improvement

Compound: [Li] [lithium]
- side effects (Example 7: lithium 300 mg tid, stopped): intolerable side effects
- side effects (Example 21: lithium 600 mg/day, improved at 300 mg): tremulousness and stomach discomfort along with diarrhea

Compound: OCCOCCN1CCN(C2=Nc3ccccc3Sc3ccccc32)CC1 [Seroquel, quetiapine fumurate]
- effect on blood sugar (Example 15: Seroquel given by their psychiatrist): elevated their blood sugar
- sedation (Example 18: Seroquel 400 mg): excessive sedation in the AM

Compound: O=C1Cc2cc(CCN3CCN(c4nsc5ccccc45)CC3)c(Cl)cc2N1 [Geodon, ziprasidone]
- tolerability (Example 42: Geodon 80 mg/day, felt like crawling out of their skin): could not tolerate the Geodon
